How the values were obtained:
[1] = target: SMN2 pre-mRNA; assay: Modulation of SMN2 mRNA FL splicing in spinal muscular atrophy patient fibroblasts; assay type: tissue-based, Homo sapiens; conditions: fibroblast
[2] = Modulation of HTT mRNA exon 49-50 splicing in human GM04724 cells; assay type: cell-based
[3] = target: SMN2 pre-mRNA; assay: Modulation of SMN2 mRNA FL splicing in spinal muscular atrophy patient fibroblasts assessed as SMN2 protein potency; assay type: tissue-based, Homo sapiens; conditions: fibroblast
[4] = Modulation of HTT mRNA exon 49b splicing in human GM04724 cells; assay type: cell-based
[5] = Modulation of HTT mRNA splicing in human GM04724 cells assessed as mHTT protein potency; assay type: cell-based
[6] = target: SMN2 pre-mRNA; assay: Modulation of SMN2 mRNA D7 splicing in spinal muscular atrophy patient fibroblasts; assay type: tissue-based, Homo sapiens; conditions: fibroblast

Row | Compound | EC50 [1] [nM] | EC50 [2] [nM] | EC50 [3] [nM] | EC50 [4] [nM] | EC50 [5] [nM] | IC50 [6] [nM]
1 | COC[C@]12CC[C@H](C[C@@H](N(C)c3ccc(-c4cc(F)c(-n5ccnc5)cc4O)nn3)C1)N2 | 0.01 | 0.01 | 0.01 | 0.01 | 0.01 | 0.01
2 | C[C@]12CC[C@H](C[C@@H](Oc3ccc(-c4ccc(-c5cn[nH]c5)cc4O)nn3)C1)N2 | 16 | 0.01 | 0.01 | 0.01 | 0.01 | 0.01
3 | CN(c1ccc(-c2ccc(-c3cnn(C)c3)cc2O)nn1)[C@H]1C[C@@H]2CC[C@@](C)(N2)[C@H]1F | 0.01 | 0.01 | 0.01 | 0.01 | 0.01 | 0.01
4 | COC[C@@]12CC[C@@H](C[C@H](N(C)c3ccc(-c4cc(F)c(-n5ccnc5)cc4O)nn3)C1)N2 | 0.01 | 0.01 | 0.01 | 0.01 | 0.01 | 0.01
5 | C[C@@]12CC[C@@H](C[C@H](Oc3ccc(-c4ccc(-n5ccnc5)cc4O)nn3)C1)N2 | 16 | 0.01 | 0.01 | 0.01 | 0.01 | 16
6 | C[C@@]12CC[C@@H](C[C@H](Oc3ccc(-c4ccc(-c5cn[nH]c5)cc4O)nn3)C1)N2 | 0.01 | 0.01 | 0.01 | 0.01 | 0.01 | 0.01

Reference: ChEMBL document CHEMBL4706758, “Novel Substituted Pyridazines as Splicing Modulators for Modulating Splicing of mRNA and Uses Thereof for Treating Diseases” (ACS Med Chem Lett, 2021)
